Reference: a melting point compilation (Tetko et al.; mined from patent text by program, amines drawn as free bases though some values may be those of a salt)

melting point | SMILES
158 to 159 °C | CCOC(=O)N(c1ccc(C#N)cc1)c1c(NC(C)C(C)(C)C)c(=O)c1=O (centres undefined)
129 to 136 °C | Cc1cc(C(C)(C)C)c(O)c(N)c1N
162 to 164 °C | O=C1OC(=O)c2c(Cl)c(Sc3ccccc3)c(Cl)c(Cl)c21
104 to 105 °C | COC(=O)CCCCCCCCOC1OC(CO)C(O)C(O)C1O (centres undefined)
133 to 135 °C | CCOC(=S)c1c(C)nc2sccn12
144 to 148 °C | O=C1NC(=O)C(c2cn3c4c(cccc24)CC3)C1c1c[nH]c2ccccc12 (centres undefined)
178 °C | N#Cc1cnc(Nc2ccc(OCCn3ccnn3)cc2)nc1-c1ccccc1
134 to 138 °C | Cc1ccccc1-c1nc2ccc(O)cc2o1
209 to 210 °C | O=C(Nc1cccc([N+](=O)[O-])c1)NC1CC(C(=O)O)Nc2cc(Cl)cc(Cl)c21 (centres undefined)
154 to 157 °C | CCn1cc(C2(c3cccc(-c4cccnc4F)c3)N=C(N)N(C)C2=O)cc1COC (centres undefined)
123 to 124 °C | CCCCCC(COc1ccc(C(=O)O)cc1)c1ccc2c(c1)SCCC2(C)C (centres undefined)
173 to 174 °C | O=C(N[C@H](Cc1ccccc1)C(=O)O)OCc1ccc2oc(-c3ccccc3)cc2c1
236 °C | CN1CCN(c2ccc(C(=O)N[C@H]3CC[C@H](CCN4CCN(c5nccc6c5OCC6)CC4)CC3)cc2)CC1
114 °C | CCCCNC(=O)Oc1cccc(NC(=O)CC(C)(OC)OC)c1
186 °C | Cc1cc(SCc2ccc(-c3ccc(C(F)(F)F)cn3)cc2)c2c(c1OCC(=O)O)CCC2
166 to 168 °C | CCOC(C)=C(C#N)C(=O)Nc1cccc(Cl)c1

melting point | SMILES
165 °C | CC1N=C(c2ccccc2)NC1=O (centres undefined)
217 to 218 °C | O=C1C(Cc2ncccc2Br)c2ccccc2C12COc1cc3c(cc12)OCCO3 (centres undefined)
195 °C | Clc1ccc2snc(-c3ccc(C4=NCCN4)cc3)c2c1
202 to 205 °C | O=C(O)CCC1(C(=O)O)NCC(=O)N1 (centres undefined)
180 to 182 °C | CC(=O)OC1CCC2(C)C3CCC4(C)C(C(C)CCCC(C)(C)O)CCC4C3CCC2(O)C1 (centres undefined)
118 to 125 °C | CNC(=N)N(C)Cc1ccc(C)cc1
141 to 144 °C | CCCN(CCC)C(N)=C(C#N)C(N)=S
62 to 63 °C | COc1cc(CNC(=S)NC(COC(=O)C(C)(C)C)Cc2ccc(C)c(C)c2)ccc1OCCN (centres undefined)
60 to 65 °C | COc1ccccc1N1CCN(CCC(C(=O)NCCN2CCOCC2)c2ccccc2)CC1 (centres undefined)
168 °C | O=C(NC(=S)c1c(Cl)cccc1Cl)Nc1ccc(Cl)c(Cl)c1
93 to 94 °C | Cc1cc(C)n(-c2ccc(N(C)N)nn2)n1
38 to 39 °C | CCCCCCCCCCCOc1cccc(CCCC(NC(C)=O)(C(=O)OCC)C(=O)OCC)c1
165 to 167 °C | NC(=O)CCC(C(=O)O)N1C(=O)c2cccc(N)c2C1=O (centres undefined)
78 to 78.5 °C | CCOC(=O)C1(O)CC(C(F)(F)F)=NN1c1ncccc1Cl (centres undefined)
156 to 157 °C | CCCC(=O)Nc1nc(=O)n(C2OC(C)C(O)C2O)cc1F (centres undefined)
63 to 65 °C | O=C(Cl)N1CCC(Oc2ccc(F)c(Cl)c2)C1 (centres undefined)

Second part, the compound before the results:

SMILES | melting point
COC(=O)CCCCCCCCCCCCCCCCCCCN1C(=O)c2ccccc2C1=O | 86.5 to 87.5 °C
COc1ccc(C=Nc2cc(OC)c(OC)c(OC)c2)cc1O[Si](C)(C)C(C)(C)C | 90 to 91 °C
[N-]=[N+]=Nc1cc(=O)n(-c2ccccc2)nc1C1=NCCN1 | 238 to 240 °C
COC(=O)C1CCC2(C3(C)OCCO3)CC1C(=O)O2 (centres undefined) | 69 to 71 °C
Brc1ccc(C2=CCCC2)cc1 | 94 to 95 °C
Cc1cc(COc2nn3c(-c4cc(C)on4)nnc3c3ccccc23)no1 | 243 to 245 °C
CC1(C)CC(O)CC(C)(C)N1N=Nc1ccccc1 | 68 to 70 °C
COc1nc2ccc(Br)cc2c2c1C(C)(OCC(O)Cn1ccc(-c3ccc(C(F)(F)F)cc3)n1)c1ccccc1-2 (centres undefined) | 65 to 67 °C
Cn1cc(-c2cccc(C#N)c2)c(=O)c(-c2cccc(C#N)c2)c1 | 322 to 327 °C
Nc1nc(C#Cc2ccccc2)cc(-c2ccccc2)n1 | 136 to 138 °C
CCN1C(=O)C(C)(C)C(=O)N(C)c2cc(OCCCn3c(=O)c(Br)cc4ccccc43)ccc21 | 168 to 169 °C
CNC(=O)CN1CCC(O)C1=O (centres undefined) | 129 to 130 °C
O=C(O)COCCC1CCCN(c2cnc(-c3ccccc3)c(-c3ccccc3)n2)C1 (centres undefined) | 139 to 140 °C
O=C(O)C12C3C4C5C3C1C5C42 (centres undefined) | 154 to 155 °C
O=CN1CCN(O)CC1 | 118 to 124 °C
N#Cc1ccc(NCc2cccc(F)c2)cc1 | 63 to 64 °C
CCOC(=O)c1cccc2c1N=C(c1ccccc1)CC2=O | 218 to 219 °C
CC1C(c2ccc(Cl)cc2)SC(=O)N1C(=O)NN1CCCCC1 (centres undefined) | 92 to 93 °C
CCOC(=O)c1c(C(C)(C)O)nc(SC)n1Cc1ccc(-c2ccccc2-c2nnn[nH]2)cc1 | 125 to 127 °C
Cc1cccc(C(=O)O)c1N(C)S(=O)(=O)c1ccc(OCCCNC(=O)c2ccc3c(c2)OCO3)cc1 | 120 °C
CNC(=O)c1ccc(C(=O)OC)cc1[N+](=O)[O-] | 155 °C

SMILES | melting point
COc1ccc2c(c1)CCC(CN1CCC3(CC1)C(=O)NCN3c1ccccc1)C2=O (centres undefined) | 177 to 179 °C
CCOC(=O)C1C=CC(c2ccccc2)n2c(=O)n(CO)c(=O)n21 (centres undefined) | 129 to 133 °C
CCC(C)=NOC(=NC1CCCCC1)N(C(=O)c1ccccc1)C1CCCCC1 | 74 to 78 °C
NCC1Cc2c(C(F)(F)F)ccc(Cl)c2O1 (centres undefined) | > 250 °C
CCS(=O)(=O)CCC(=O)NNC(=O)N1Cc2ccccc2Oc2ccc(C#N)cc21 | 188 to 190 °C
COC(=O)c1cc(OCC(=O)O)cc(C(=O)OC)c1[N+](=O)[O-] | 151 to 152 °C
COc1ccccc1N1CCN(CNC(=O)c2ccc(Cl)cc2)CC1 | 145 to 147 °C
O=S1(=O)CCCSC(Cl)=N1 | 156 °C
COc1cc2c(cc1Nc1ncc(Cl)c(Nc3ccccc3S(=O)(=O)N(C)C)n1)CCN(CC(C)(C)O)CC2 | 188 to 189 °C
CSc1nc2cc3c(cc2[nH]1)NC(=O)C3(C)C | 248 to 250 °C
N#CCCNC(=O)c1cccc(-c2cccc(Oc3cncc(Cl)c3)n2)c1 | 143 to 144 °C
Nc1ccc2c(ccn2Cc2ccccc2)c1 | 66 to 68 °C
Fc1cccc(CSc2nnc(-c3ccc4occc4c3)o2)c1 | 112 to 113 °C
COc1cc(CN2CCN(c3ccc(O)cc3)CC2)nc(-c2ccccc2)n1 | 166 to 167 °C
FC(F)(F)c1ccc(-c2cc(C(F)(F)F)c(Br)nn2)cc1 | 123 to 125 °C
CN1C(=O)c2c(n3cncc3c3[nH]c4ncccc4c23)C1=O | 304 to 307 °C
Nc1ccc(OCc2c(Cl)cccc2Cl)cc1[N+](=O)[O-] | 155 °C
O=C(O)COc1cccc2c1Cc1sc(SCC=Cc3ccccc3)nc1-2 | 172 to 174 °C
Cc1ccc2oc(=O)c(-c3ccccc3)c(OCCN3CCOCC3)c2c1 | 96 °C
O=C1CCC(c2ccccc2)(c2ccccc2)[C@@H]2CN(C(=O)Cc3c(Cl)cccc3Cl)C[C@H]12 (racemic) | 201 °C
CC(C)(CCn1cncn1)NCC(O)c1ccc(O)c(CO)c1 (centres undefined) | 177 to 180 °C
